According to article PMC6792352, “Limited Chemical Structural Diversity Found to Modulate Thyroid Hormone Receptor in the Tox21 Chemical Library” (Environmental Health Perspectives, 2019):
Where two headings read alike, the source gives them in different places.

Columns and labels:
[1] = system: thyroid hormone receptor (endogenous TRα and TRβ); assay: GH3-TRE-Ag primary qHTS, luciferase reporter, agonist mode (TOX21_TR_LUC_GH3_Agonist, aeid 803); format: cell-based, rat; conditions: for GH3-TRE-Ag AC50 hitc: hit call from tcpl
[2] = system: thyroid hormone receptor (endogenous TRα and TRβ); assay: GH3-TRE-Ag-Followup confirmation (TOX21_TR_LUC_GH3_Agonist_Followup, aeid 2226); format: cell-based, rat; conditions: for GH3-TRE-Ag-Followup hitc: hit call from tcpl; for AC50: read-out: GH3-TRE-Ag-Followup AC50
[3] = target: T1, human RXRα (Homo sapiens, UniProt P19793); assay: RXRa-bla-Ag mammalian one-hybrid beta-lactamase assay (TOX21_TR_RXR_BLA_Agonist_Followup_ratio, aeid 2253); format: cell-based; conditions: for tr-followup-rxr-bla-agonist-1 hitc: hit call from tcpl
T1 construct: host or cells: GeneBLAzer UAS-bla HEK 293T
T1 sequence (P19793 227-458 limits assumed): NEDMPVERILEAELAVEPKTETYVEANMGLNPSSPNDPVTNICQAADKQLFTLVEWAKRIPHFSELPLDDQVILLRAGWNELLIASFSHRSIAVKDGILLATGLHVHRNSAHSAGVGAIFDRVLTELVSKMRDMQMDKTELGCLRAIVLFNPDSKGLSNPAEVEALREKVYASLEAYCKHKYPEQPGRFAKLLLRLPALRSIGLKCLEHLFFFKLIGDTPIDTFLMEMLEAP

[4] = target: T2, TRα ligand-binding domain (Homo sapiens, UniProt P10827); assay: TRa-coa LanthaScreen TR-FRET coactivator (SRC-2 peptide) recruitment, agonist (TOX21_TRA_COA_Agonist_Followup_ratio, aeid 2230); format: biochemical; conditions: for TRa-coa hitc: hit call from tcpl
T2 construct: the receptor LBDs expressed as glutathione S-transferase (GST) fusion proteins; purchased
T2 sequence (P10827 163-410 isoform P10827-2 limits assumed, other chains not shown): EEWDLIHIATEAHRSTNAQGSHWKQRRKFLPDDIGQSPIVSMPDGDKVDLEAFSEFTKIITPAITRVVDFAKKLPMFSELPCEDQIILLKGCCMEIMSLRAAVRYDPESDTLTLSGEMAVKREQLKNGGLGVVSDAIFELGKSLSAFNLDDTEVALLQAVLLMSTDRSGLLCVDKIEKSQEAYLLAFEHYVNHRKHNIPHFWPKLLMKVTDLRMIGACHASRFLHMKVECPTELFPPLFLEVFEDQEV

[5] = system: Tox21 cell viability assays (different cell types); assay: Global cytotoxicity: eighteen Tox21 cell viability assays; format: cell-based
[6] = system: thyroid hormone receptor (TR); assay: Classification of TR actives across characterization assays (TR-Ag / RXR-Ag; TR model binary); design: key to Categorization Code: FP, false positive; conditions: for Categorization Code: TR agonist characterization; for Classification: TR-Ag = TR agonist, RXR-Ag = RXR agonist
Excerpt: Active rate comparison between receptors. […]; [Kleinstreuer et al. 2017]). We first removed chemicals classified as pharmaceuticals because these sets of chemicals are biased toward drugs targeting estrogen receptors and androgen receptors. […]. For TR, we cross-referenced these same chemicals for testing against TR and used candidate chemicals in Tables 2 and 3 to define active rates.
Complete results from both GH3-TRE qHTS agonist, antagonist, and viability mode for the 8,305 compounds are provided in Excel Table S2. […]. […]. Together with some potential false negatives, these chemicals, totaling 84 in all, were screened for activity in a series of assays for confirmation in the GH3-TRE-Ag assay; specificity screening in the TRβ-UAS-bla HEK 293T and RXRα-UAS-bla HEK 293T mammalian one-hybrid assays; viability assays for the HEK293T parental cell line; and orthogonal screening in two TR:coactivator recruitment assays, TRa-coa and TRb-coa. […].

[7] = in vitro; conditions: rat, gh3-tre-luc cells, viability, 1 nM T3 present, 24 h
[8] = target: T3, human TRβ ligand-binding domain (Homo sapiens, UniProt P10828); assay: TRb-bla agonist mammalian one-hybrid beta-lactamase assay (TOX21_TRB_BLA_Agonist_Followup_ratio, aeid 2236); format: cell-based; design: host or cells: GeneBLAzer UAS-bla HEK 293T; conditions: for TRb-bla hitc: hit call from tcpl
T3 sequence (P10828 217-461 limits assumed): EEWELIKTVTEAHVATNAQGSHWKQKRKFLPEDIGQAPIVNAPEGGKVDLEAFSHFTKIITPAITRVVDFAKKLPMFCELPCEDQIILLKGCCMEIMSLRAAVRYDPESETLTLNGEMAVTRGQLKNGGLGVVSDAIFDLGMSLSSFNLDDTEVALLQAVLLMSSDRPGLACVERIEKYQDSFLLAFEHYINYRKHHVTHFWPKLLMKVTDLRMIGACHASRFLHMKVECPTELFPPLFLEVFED

[9] = target: T3, human TRβ ligand-binding domain; assay: TRb-coa LanthaScreen TR-FRET coactivator (SRC-2 peptide) recruitment, agonist (TOX21_TRB_COA_Agonist_Followup_ratio, aeid 2244); format: biochemical; design: host or cells: GeneBLAzer UAS-bla HEK 293T; conditions: for TRb-coa hitc: hit call from tcpl
[10] = system: GH3-TRE-Luc cell line; assay: GH3-TRE-Via cell viability, CellTiter-Fluor (TOX21_TR_LUC_GH3_Antagonist_viability, aeid 805); conditions: for TR_LUC_GH3_Antagonist_viability hitc: hit call from tcpl
[11] = system: GH3-TRE-Luc cell line
[12] = read-out: tr-followup-rxr-bla-agonist-1 AC50
[13] = # active of 18 total Tox21 viability assays
[14] = median over Tox21 viability assays

Row | Structure (SMILES) | EMax (% of Control) gh3-tre-agonist [1] | GH3-TRE-Ag AC50 hitc [1] | EMax (% of Control) gh3-tre-agonist-followup-1_agonist [2] | GH3-TRE-Ag-Followup hitc [2] | EMax (% of Control) tr-followup-rxr-bla-agonist-1 [3] | tr-followup-rxr-bla-agonist-1 hitc [3] | AC50 [3, 12] [µM] | EMax (% of Control) tra-coa-agonist-followup-1 [4] | TRa-coa hitc ([4]; agonist) | GLOBAL CYTOTOXICITY cytotox.number_Active [5, 13] | GLOBAL CYTOTOXICITY cytotox.median [5, 14] | Categorization Code [6] | TRb-bla hitc ([8]; agonist) | TRb-coa hitc ([9]; agonist) | TR_LUC_GH3_Antagonist_viability hitc [10] | AC50 [5] [µM] | GLOBAL CYTOTOXICITY cytotox.median [5] | GLOBAL CYTOTOXICITY cytotox.number_Active [5] | Classification [6] | AC50 [11] [µM] | also measured
1 | CC(C)(c1ccccc1)c1ccc(O)c(C(C)(C)c2ccccc2)c1 [2,4-Bis(1-methyl-1-phenylethyl)phenol] | 22.3 % of Control | 0 | 33.5 % of Control | 1 | 12.1 % of Control | 0 | > 92 | 9.2 % of Control | 0 | 17 | 24.3 | FP | 0 | 0 | 1 |  |  |  |  |  | AC50 [2]: 5.35 µM; AC50 ([4]; agonist, read-out: TRa-coa AC50): > 92 µM; CC50 at 24 h ([7]; AC50 (uM) modified / 1000, Tox21_110001=Tox21_202456): 13.3 µM; CC50 at 24 h ([7]; AC50 (uM) modified / 1000, Tox21_110001=Tox21_300317): 11.2 µM; AC50 ([8]; agonist, read-out: TRb-bla AC50): > 92 µM; EMax (% of Control) trb-coa-agonist-followup-1 [9]: 13.4 % of Control; AC50 ([9]; agonist, read-out: TRb-coa AC50): > 92 µM; AC50 ([10]; read-out: TR_LUC_GH3_Antagonist_viability AC50): 11.2 µM
2 | N[C@@H](Cc1cc(I)c(Oc2ccc(O)c(I)c2)c(I)c1)C(=O)[O-].[Na+] [3,3ʹ,5-Triiodo-L-thyronine sodium salt, reference compound] |  | 1 | 96.5 % of Control | 1 |  |  |  |  |  |  |  | TR-Ag |  |  |  | > 92 | >92 | 0 | TR-Ag | > 92 | TR_LUC_GH3_Agonist_EMAX (% Control) ([1]; Table S5): 108.5 % Control; TR_LUC_GH3_Antagonist_viability hitc [11]: 0
3 | Cc1cc(NC(=O)C(=O)O)cc(C)c1Oc1ccc(O)c2c1CCC2 [CP-634384, reference compound] | 129.5 % of Control | 1 | 103.7 % of Control | 1 | 54.9 % of Control | 1 |  | 158.4 % of Control | 1 |  |  | TR-Ag |  |  |  | > 92 | >92 | 0 | TR-Ag | > 92 | AC50 ([2]; confirmation, agonist mode): 0.018 µM; AC50 ([3]; HEK 293T one-hybrid, agonist mode, inactive set to 1,000, read-out: RXRa-bla-Ag AC50): 44.3 µM; AC50 ([4]; cell-free coactivator recruitment, read-out: TRa-coa-Ag AC50): 0.0029 µM; TR_LUC_GH3_Antagonist_viability hitc [11]: 0
4 | O=C(Cl)OCCOCCOC(=O)Cl [Diethlylene glycol bis chloroformate] | 19.2 % of Control | 1 | 21.1 % of Control | 0 |  | 0 | > 92 |  | 0 | 0 | >92 | FP | 0 | 0 | 0 |  |  |  |  |  | AC50 ([1]; read-out: GH3-TRE-Ag AC50): 5.6 µM; Emax ([3]; read-out: EMax (% of Control) tr-followup-rxr-bla-agonist-1): -1.9%; AC50 [4]: > 92 µM; Emax ([4]; read-out: EMax (% of Control) tra-coa-agonist-followup-1): -0.217%; AC50 [8]: > 92 µM; Emax ([8]; read-out: EMax (% of Control) trb-bla-agonist-followup-1): 6.2%; AC50 [9]: > 92 µM; Emax ([9]; read-out: EMax (% of Control) trb-coa-agonist-followup-1): -0.349%; AC50 ([10]; Rattus norvegicus, read-out: TR_LUC_GH3_Antagonist_viability AC50 (uM)): > 92 µM
